Data taken from patent publication US9511064B2, “Combination therapy for the treatment of cancer and immunosuppression” (Basilea Pharmaceutica AG, priority 2012, dated 2016).
pIC50: −log10 of the molar value. Like-named read-outs stand apart in the source and are kept apart here.

Assays:
HL60 tumor cells = test: AlamarBlue conversion cell proliferation assay, HL60 cell line; type: cell-based
Experimental: (§1) The in vitro anti-proliferative activity of compounds of formula (I), metformin and combinations thereof is tested in an AlamarBlue conversion cell proliferation assay (Promega) on HL60 tumor cells and the mouse mast cell line 6.5 (Colombi et al., Oncogene 2011, 30:1551-65). Cells are seeded into 96-well microtiter plates (seeding cell density is 7,000 cells per well in 150 uL Iscove's medium) and test compounds are added (compounds of formula (I) are added from a 10 mM stock solution in DMSO, metformin from a freshly prepared 1 M solution in culture medium). Plates are incubated for 3 days at 37°, 5% CO2 and proliferation is determined by AlamarBlue staining (0.1 vol % added to cultures and incubated for further 4-5 hours). The conversion of AlamarBlue is proportional to live cell number and is read with a fluorescence plate reader (Ex/Em 535/595 nm). Growth is normalized to the untreated controls.

mouse mast cell line 6.5 = test: AlamarBlue conversion cell proliferation assay, 6.5 cell line; type: cell-based
Experimental: as §1

[1] = combined with 4 mM metformin, 3 days incubation, read-out: concentration that inhibits the proliferation of cells by approximately 50% when combined with 4 mM metformin, HL60 cell line
[2] = combined with 4 mM metformin, 3 days incubation, read-out: concentration that inhibits the proliferation of cells by approximately 50% when combined with 4 mM metformin, 6.5 cell line
[3] = read-out: concentration that inhibits the proliferation of cells by approximately 50% when combined with 4 mM metformin, HL60 cell line, 3 days incubation
[4] = read-out: concentration that inhibits the proliferation of cells by approximately 50% when combined with 4 mM metformin, 6.5 cell line, 3 days incubation

Row | SMILES | pIC50 (HL60 tumor cells; [1]) | pIC50 (mouse mast cell line 6.5; [2]) | pIC50 (HL60 tumor cells; [3]) | pIC50 (mouse mast cell line 6.5; [4])
1 | COC(=O)[C@H]1[C@H]2C[C@@H]3c4[nH]c5cc(OC)ccc5c4CCN3C[C@H]2C[C@@H](OC(=O)c2cc(OC)c(OC(=O)OCc3cccnc3)c(OC)c2)[C@@H]1OC [Example 7, methyl (1R,15S,17R,18R,19S,20S)-17-[(3,5-dimethoxy-4-{[(pyridin-3-ylmethoxy)carbonyl]oxy}phenyl)carbonyloxy]-6,18-dimethoxy-3,13-diazapentacyclo[11.8.0.0^2,10.0^4,9.0^15,20]henicosa-2(10),4,6,8-tetraene-19-carboxylate] | 5.70 | 5.60 |  | 
2 | COC(=O)[C@H]1[C@H]2C[C@@H]3c4[nH]c5cc(OC)ccc5c4CCN3C[C@H]2C[C@@H](OC(=O)c2cc(OC)c(OC(=O)OCc3ccc(C(F)(F)F)cc3)c(OC)c2)[C@@H]1OC [Example 38] | 5.40 | 5.40 |  | 
3 | COC(=O)[C@H]1[C@H]2C[C@@H]3c4[nH]c5cc(OC)ccc5c4CCN3C[C@H]2C[C@@H](OC(=O)c2cc(OC)c(OC(=O)OCc3cccc(Br)c3)c(OC)c2)[C@@H]1OC [Example 31] | 5.70 | 5.70 |  | 
4 | CCOC(=O)Oc1c(OC)cc(C(=O)O[C@@H]2C[C@@H]3CN4CCc5c([nH]c6cc(OC(=O)CN)ccc56)[C@H]4C[C@@H]3[C@H](C(=O)OC)[C@H]2OC)cc1OC [Example 16, methyl (1R,15S,17R,18R,19S,20S)-6-[(2-aminoacetyl)oxy]-17-({4-[(ethoxycarbonyl)oxy]-3,5-dimethoxyphenyl}carbonyloxy)-18-methoxy-3,13-diazapentacyclo[11.8.0.0^2,10.0^4,9.0^15,20]henicosa-2(10),4,6,8-tetraene-19-carboxylate] |  |  | 5.70 | 6.00
5 | COC(=O)[C@H]1[C@H]2C[C@@H]3c4[nH]c5cc(OC)ccc5c4CCN3C[C@H]2C[C@@H](OC(=O)c2cc(OC)c(OC(=O)OCc3cc(F)cc(F)c3)c(OC)c2)[C@@H]1OC [Example 33] | 5.70 | 5.70 |  | 
6 | COC(=O)[C@H]1[C@H]2C[C@@H]3c4[nH]c5cc(OC)ccc5c4CCN3C[C@H]2C[C@@H](OC(=O)c2cc(OC)c(OC(=O)OCc3ccncc3)c(OC)c2)[C@@H]1OC [Example 6, methyl (1R,15S,17R,18R,19S,20S)-17-[(3,5-dimethoxy-4-{[(pyridin-4-ylmethoxy)carbonyl]oxy}phenyl)carbonyloxy]-6,18-dimethoxy-3,13-diazapentacyclo[11.8.0.0^2,10.0^4,9.0^15,20]henicosa-2(10),4,6,8-tetraene-19-carboxylate] |  |  | 5.60 | 5.60
7 | COC(=O)[C@H]1[C@H]2C[C@@H]3c4[nH]c5cc(OC)ccc5c4CCN3C[C@H]2C[C@@H](OC(=O)c2cc(OC)c(OC(=O)OCc3cccc(Cl)c3)c(OC)c2)[C@@H]1OC [Example 35] | 5.70 | 5.70 |  | 
8 | CCOC(=O)Oc1c(OC)cc(C(=O)O[C@@H]2C[C@@H]3CN4CCc5c([nH]c6cc(O)ccc56)[C@H]4C[C@@H]3[C@H](C(=O)OC)[C@H]2OC)cc1OC [Example 13, methyl (1R,15S,17R,18R,19S,20S)-17-({4-[(ethoxycarbonyl)oxy]-3,5-dimethoxyphenyl}carbonyloxy)-6-hydroxy-18-methoxy-3,13-diazapentacyclo[11.8.0.0^2,10.0^4,9.0^15,20]henicosa-2(10),4,6,8-tetraene-19-carboxylate] | 5.70 | 6.00 |  | 
9 | COC(=O)[C@H]1[C@H]2C[C@@H]3c4[nH]c5cc(OC)ccc5c4CCN3C[C@H]2C[C@@H](OC(=O)c2cc(OC)c(OC(=O)OCc3cccc4ccccc34)c(OC)c2)[C@@H]1OC [Example 34] | 5.30 | 5.12 |  | 
10 | COC(=O)[C@H]1[C@H]2C[C@@H]3c4[nH]c5cc(OC)ccc5c4CCN3C[C@H]2C[C@@H](OC(=O)c2cc(OC)c(OC(=O)OCc3cc(OC)cc(OC)c3)c(OC)c2)[C@@H]1OC [Example 8, methyl (1R,15S,17R,18R,19S,20S)-17-{[4-({[(3,5-dimethoxyphenyl)methoxy]carbonyl}oxy)-3,5-dimethoxyphenyl]carbonyloxy}-6,18-dimethoxy-3,13-diazapentacyclo[11.8.0.0^2,10.0^4,9.0^15,20]henicosa-2(10),4,6,8-tetraene-19-carboxylate] | 5.40 | 5.30 |  | 
11 | COC(=O)[C@H]1[C@H]2C[C@@H]3c4[nH]c5cc(OC)ccc5c4CCN3C[C@H]2C[C@@H](OC(=O)c2cc(OC)c(OC(=O)OCc3cccc(C(F)(F)F)c3)c(OC)c2)[C@@H]1OC [Example 32] | 5.70 | 5.70 |  | 
12 | COC(=O)[C@H]1[C@H]2C[C@@H]3c4[nH]c5cc(OC)ccc5c4CCN3C[C@H]2C[C@@H](OC(=O)c2cc(OC)c(OC(=O)OCc3ccc(F)cc3)c(OC)c2)[C@@H]1OC [Example 36] | 5.52 | 5.60 |  | 
13 | CCOC(=O)Oc1c(OC)cc(C(=O)O[C@@H]2C[C@@H]3CN4CCc5c([nH]c6cc(OC(C)=O)ccc56)[C@H]4C[C@@H]3[C@H](C(=O)OC)[C@H]2OC)cc1OC [Example 14, methyl (1R,15S,17R,18R,19S,20S)-6-(acetyloxy)-17-({4-[(ethoxycarbonyl)oxy]-3,5-dimethoxyphenyl}carbonyloxy)-18-methoxy-3,13-diazapentacyclo[11.8.0.0^2,10.0^4,9.0^15,20]henicosa-2(10),4,6,8-tetraene-19-carboxylate] | 5.70 | 5.82 |  | 
14 | COC(=O)[C@H]1[C@H]2C[C@@H]3c4[nH]c5cc(OC)ccc5c4CCN3C[C@H]2C[C@@H](OC(=O)c2cc(OC)c(OC(=O)Cc3ccccc3)c(OC)c2)[C@@H]1OC [Example 20, methyl (1R,15S,17R,18R,19S,20S)-17-({3,5-dimethoxy-4-[(2-phenylacetyl)oxy]phenyl}carbonyloxy)-6,18-dimethoxy-3,13-diazapentacyclo[11.8.0.0^2,10.0^4,9.0^15,20]henicosa-2(10),4,6,8-tetraene-19-carboxylate] |  |  | 5.30 | 5.30
15 | CCOC(=O)Oc1c(OC)cc(C(=O)O[C@@H]2C[C@@H]3CN4CCc5c([nH]c6cc(OC(=O)c7ccccc7)ccc56)[C@H]4C[C@@H]3[C@H](C(=O)OC)[C@H]2OC)cc1OC [Example 15, methyl (1R,15S,17R,18R,19S,20S)-6-(benzoyloxy)-17-({4-[(ethoxycarbonyl)oxy]-3,5-dimethoxyphenyl}carbonyloxy)-18-methoxy-3,13-diazapentacyclo[11.8.0.0^2,10.0^4,9.0^15,20]henicosa-2(10),4,6,8-tetraene-19-carboxylate] | 5.70 | 5.82 |  | 
16 | CCOC(=O)Oc1c(OC)cc(C(=O)O[C@@H]2C[C@@H]3CN4CCc5c([nH]c6cc(OC(=O)CNC(C)=O)ccc56)[C@H]4C[C@@H]3[C@H](C(=O)OC)[C@H]2OC)cc1OC [Example 17, methyl (1R,15S,17R,18R,19S,20S)-6-[(2-acetamidoacetyl)oxy]-17-({4-[(ethoxycarbonyl)oxy]-3,5-dimethoxyphenyl}carbonyloxy)-18-methoxy-3,13-diazapentacyclo[11.8.0.0^2,10.0^4,9.0^15,20]henicosa-2(10),4,6,8-tetraene-19-carboxylate] | 5.82 | 6.00 |  | 
17 | COC(=O)[C@H]1[C@H]2C[C@@H]3c4[nH]c5cc(OC)ccc5c4CCN3C[C@H]2C[C@@H](OC(=O)c2cc(OC)c(OC(=O)OCc3cc(Cl)cc(Cl)c3)c(OC)c2)[C@@H]1OC [Example 10, methyl (1R,15S,17R,18R,19S,20S)-17-{[4-({[(3,5-dichlorophenyl)methoxy]carbonyl}oxy)-3,5-dimethoxyphenyl]carbonyloxy}-6,18-dimethoxy-3,13-diazapentacyclo[11.8.0.0^2,10.0^4,9.0^15,20]henicosa-2(10),4,6,8-tetraene-19-carboxylate] | 6.00 | 6.00 |  | 
18 | COC(=O)[C@H]1[C@H]2C[C@@H]3c4[nH]c5cc(OC)ccc5c4CCN3C[C@H]2C[C@@H](OC(=O)c2cc(OC)c(OC(=O)OCc3ccc(Cl)cc3)c(OC)c2)[C@@H]1OC [Example 9, methyl (1R,15S,17R,18R,19S,20S)-17-{[4-({[(4-chlorophenyl)methoxy]carbonyl}oxy)-3,5-dimethoxyphenyl]carbonyloxy}-6,18-dimethoxy-3,13-diazapentacyclo[11.8.0.0^2,10.0^4,9.0^15,20]henicosa-2(10),4,6,8-tetraene-19-carboxylate] | 5.40 | 5.40 |  | 
19 | COC(=O)[C@H]1[C@H]2C[C@@H]3c4[nH]c5cc(OC)ccc5c4CCN3C[C@H]2C[C@@H](OC(=O)c2cc(OC)c(OC(=O)OCc3ccccc3)c(OC)c2)[C@@H]1OC [Example 21, methyl (1R,15S,17R,18R,19S,20S)-17-[(4-{[(benzyloxy)carbonyl]oxy}-3,5-dimethoxyphenyl)carbonyloxy]-6,18-dimethoxy-3,13-diazapentacyclo[11.8.0.0^2,10.0^4,9.0^15,20]henicosa-2(10),4,6,8-tetraene-19-carboxylate] |  |  | 5.46 | 5.70
